Measurements published in US20020051978A1, “Methods and compositions for the identification, assessment, prevention and therapy of human cancers” (priority 2000, published 2002).
Where “and” joins values, the source holds several entries; their conditions need not be identical. Equal values may be shown once. Read-outs that look alike come from different tables or passages of the source.

Legend:
[1] = test system: 60 cancer cell lines (NCI 60 cancer cell line series); assay: NCI-DTP in vitro cancer screen, sulforhodamine B (SRB) growth inhibition, 48 hour exposure; type: cell-based, human; set-up: key to sensitivity class Ovarian OVCAR-8 CL6005 / sensitivity class Ovarian SK-OV-3 CL6011 / sensitivity class Prostate DU-145 CL11003 / sensitivity class NSCLC NCI-H522 CL1003 / sensitivity class Ovarian IGROV1 CL6010 / sensitivity class Ovarian OVCAR-4 CL6002 / sensitivity class Prostate PC-3(I) CL11001 / sensitivity class Renal A498 CL9013 / sensitivity class Renal SN12C CL9008: sensitivity class: 1 = Low, 2 = Medium, 3 = High
How it was run: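 Values come from the NCI-DTP screen database: -log GI50, the concentration giving 50% growth inhibition, derived from SRB cell-mass dose-response curves. Each line seeded at its own density, treated day 1 at five ten-fold-spaced doses in duplicate wells, stained after 48 h.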

[2] = test system: 60 cancer cell lines (NCI 60 cancer cell line series); conditions: cited from earlier work

## CN(Cc1cnc2nc(N)nc(N)c2n1)c1ccc(C(=O)N[C@@H](CCC(=O)O)C(=O)O)cc1 [Methotrexate]
[1]; Breast BT-549 (CL5013)
  classification of cell line as Low(1), Medium(2) or High(3) sensitivity to compound: 1
[1]; Breast HS-578T CL5006
  classification of cell line as Low(1), Medium(2) or High(3) sensitivity to compound: 1
[1]; Breast MCF7/ADRr (CL5002)
  classification of cell line as Low(1), Medium(2) or High(3) sensitivity to compound: 2
[1]; Breast MDA-MB-231 CL5005
  classification of cell line as Low(1), Medium(2) or High(3) sensitivity to compound: 1
[1]; Breast T-47D (CL5014)
  classification of cell line as Low(1), Medium(2) or High(3) sensitivity to compound: 1
[1]; CNS SF-268 CL12014
  classification of cell line as Low(1), Medium(2) or High(3) sensitivity to compound: 2
[1]; CNS SF-295 CL12015
  classification of cell line as Low(1), Medium(2) or High(3) sensitivity to compound: 3
[1]; CNS SF-539 CL12016
  classification of cell line as Low(1), Medium(2) or High(3) sensitivity to compound: 3
[1]; CNS U251(I) CL12009
  classification of cell line as Low(1), Medium(2) or High(3) sensitivity to compound: 2
[1]; Colon COLO-250 CL4010
  classification of cell line as Low(1), Medium(2) or High(3) sensitivity to compound: 2
[1]; Colon HCC-2998 (CL4002)
  classification of cell line as Low(1), Medium(2) or High(3) sensitivity to compound: 2
[1]; Colon HCT-15 CL4015
  classification of cell line as Low(1), Medium(2) or High(3) sensitivity to compound: 3
[1]; Colon HCT-116 (CL4003)
  classification of cell line as Low(1), Medium(2) or High(3) sensitivity to compound: 3
[1]; Colon KM12 (CL4017)
  classification of cell line as Low(1), Medium(2) or High(3) sensitivity to compound: 2
[1]; Leukemia HL-60(I) (CL7008)
  classification of cell line as Low(1), Medium(2) or High(3) sensitivity to compound: 2
[1]; Leukemia K562(I) CL7005
  classification of cell line as Low(1), Medium(2) or High(3) sensitivity to compound: 3
[1]; Leukemia RPMI-8226(I) (CL7010)
  classification of cell line as Low(1), Medium(2) or High(3) sensitivity to compound: 2
[1]; Melanoma LOX IMVI CL10001
  classification of cell line as Low(1), Medium(2) or High(3) sensitivity to compound: 3
[1]; Melanoma SK-MEL-2 (CL10005)
  classification of cell line as Low(1), Medium(2) or High(3) sensitivity to compound: 1
[1]; Melanoma SK-MEL-5 (CL10007)
  classification of cell line as Low(1), Medium(2) or High(3) sensitivity to compound: 2
[1]; Melanoma SK-MEL-28 (CL10008)
  classification of cell line as Low(1), Medium(2) or High(3) sensitivity to compound: 1
[1]; Melanoma UACC-62 (CL10020)
  classification of cell line as Low(1), Medium(2) or High(3) sensitivity to compound: 3
[1]; NSCLC A549/ATCC (CL1004)
  classification of cell line as Low(1), Medium(2) or High(3) sensitivity to compound: 3
[1]; NSCLC EKVX (CL1008)
  classification of cell line as Low(1), Medium(2) or High(3) sensitivity to compound: 1
[1]; NSCLC HOP-62 (CL1026)
  classification of cell line as Low(1), Medium(2) or High(3) sensitivity to compound: 2
[1]; NSCLC HOP-92 (CL1029)
  classification of cell line as Low(1), Medium(2) or High(3) sensitivity to compound: 1
[1]; NSCLC NCI-H226 CL1013
  classification of cell line as Low(1), Medium(2) or High(3) sensitivity to compound: 1
[1]; cell line NSCLC NCI-H23(I), CL1001
  sensitivity class NSCLC NCI-H23(I) CL1001: 2
[1]; cell line NSCLC NCI-H332M, CL1017
  sensitivity class NSCLC NCI-H332M CL1017: 2
[1]; cell line NSCLC NCI-H460, CL1021
  sensitivity class NSCLC NCI-H460 CL1021: 3
[1]; cell line Ovarian IGROV1, CL6010
  sensitivity class Ovarian IGROV1 CL6010: 2
[1]; cell line Ovarian OVCAR-3, CL6001
  sensitivity class Ovarian OVCAR-3 CL6001: 2
[1]; cell line Ovarian OVCAR-4, CL6002
  sensitivity class Ovarian OVCAR-4 CL6002: 1
[1]; cell line Ovarian OVCAR-5, CL6003
  sensitivity class Ovarian OVCAR-5 CL6003: 2
[1]; cell line Prostate DU-145, CL11003
  sensitivity class Prostate DU-145 CL11003: 2
[1]; cell line Renal A498, CL9013
  sensitivity class Renal A498 CL9013: 1
[1]; cell line Renal ACHN, CL9023
  sensitivity class Renal ACHN CL9023: 2
[1]; cell line Renal RXF-393, CL9016
  sensitivity class Renal RXF-393 CL9016: 1
[1]; cell line Renal SN12C, CL9008
  sensitivity class Renal SN12C CL9008: 3
[1]; cell line Renal TK10, CL9024
  sensitivity class Renal TK10 CL9024: 1
[1]; cell line Renal UO-31, CL9004
  sensitivity class Renal UO-31 CL9004: 2
[2]; Breast MCF7/ADRr (CL5002)
  -Log (GI50): 7.3 and 7.0
[2]; CNS SF-268 CL12014
  -Log (GI50): 7.5 and 7.3
[2]; Colon COLO-250 CL4010
  -Log (GI50): 6.2 and 6.0
[2]; Colon HCC-2998 (CL4002)
  -Log (GI50): 7.0 and 6.9
[2]; Colon HT29(I) CL4001
  -Log (GI50): 7.7 and 7.5
[2]; Colon KM12 (CL4017)
  -Log (GI50): 7.4 and 7.3
[2]; Colon SW-620 (CL4009)
  -Log (GI50): 7.2 and 7.5
[2]; Leukemia CCRF-CEM(I) (CL7003)
  -Log (GI50): 7.4 and 7.5
[2]; Leukemia HL-60(I) (CL7008)
  -Log (GI50): 7.4
[2]; Leukemia MOLT-4 (CL7006)
  -Log (GI50): 7.6 and 7.5
[2]; Leukemia RPMI-8226(I) (CL7010)
  -Log (GI50): 6.9 and 7.1
[2]; Melanoma M14 (CL10014)
  -Log (GI50): 7.5
[2]; Melanoma MALME-3M CL10002
  -Log (GI50): 5.4 and 5.5
[2]; Melanoma SK-MEL-5 (CL10007)
  -Log (GI50): 7.2 and 7.0
[2]; Melanoma SK-MEL-28 (CL10008)
  -Log (GI50): 5.3 and 5.4
[2]; NSCLC EKVX (CL1008)
  -Log (GI50): 5.0
[2]; NSCLC HOP-92 (CL1029)
  -Log (GI50): 5.1
[2]; NSCLC NCI-H332M CL1017
  -Log (GI50): 6.4 and 6.3
[2]; Prostate DU-145 CL11003
  -Log (GI50): 7.6 and 7.3
[2]; Renal 786-O CL9018
  -Log (GI50): 7.5
